Experimental data from US20240407363A1 (priority 2021, published 2024).

Test system: X. perforans strain GEV-485
Test: In vitro antibacterial activity at different time points (viable colony counts)
Assay type: cell-based
Procedure: X. perforans strain GEV-485, a copper-resistant strain, was used in this study to evaluate the antibacterial activity of Hx. Working cultures of GEV-485 were retrieved from −80° C. storage vials containing bacterial suspensions in 30% glycerol (v/v). Bacterial cells were taken from the storage, streaked on nutrient agar (NA; Difco™ Sparks, MD) plates and incubated for 48 h at 28° C. and single colonies were picked and streaked on NA plates to ensure bacterial purity for further cultures. NA amended with copper (II) sulfate pentahydrate (CuSO4·5H2O) (Fisher Scientific-Hampton, NH) at 20 ppm, was used as copper tolerance selective agent. To prepare the bacterial inoculum, a single bacterial colony was streaked on NA and incubated for 24 h at 28° C. From those plates, loops of bacterial cells were collected and resuspended in SDW amended with 0.01 M MgSO4. The bacterial concentration was adjusted to ˜5.0×10^8 colony-forming units (CFU)/mL based on an optical density (OD) of 0.3 at 600 nm. The in vitro studies were conducted to determine the minimum inhibitory concentration (MIC), minimum bactericidal concentration (MBC), and the antibacterial activity at different time points.
For the antibacterial activity study of Hx at different time points, the bacterial suspension was prepared as described above. […] After incubation, total viable colonies for each tube were counted. […]

## CCCCCC(=O)O [Hexanoic acid, hexanoic acid]
At 256 mg/L or higher concentrations, after 4 hours of treatment
  colony growth after treatment: no colonies grew
Higher concentrations of hexanoic acid
  bactericidal effect over time: bactericidal effects within an hour
